# Experimental data reported in patent US20020137779A1, “Use of L-2-oxothiazolidine-4-carboxylic acid for the treatment of type 2 diabetes” (Advanced Biochemicals Inc., priority 2001, published 2002).
# Assays:
# [1] = ED50 by linear regression method; type: in vivo; conditions: calculated by linear regression method; read-out: ED50 (50% of maximum effective dose)
# From the text: ED50 is defined as 50% of maximum effective dose calculated by linear regression method. The term “treat” refers to the ability of the compounds to either relieve, alleviate, or slow the progression of the patient's disease.
# [2] = tested on: type 2 diabetes mice (C57BL/KsJ-db/db Jcl); test: blood glucose levels after glucose intake, single oral administration (Example 3); type: in vivo, mouse; conditions: for blood glucose level / decrease of blood glucose level vs control group: 30 min after glucose intake
# Protocol: Third step; Determining the abilities of lowering blood glucose level and increasing insulin secretion ability following glucose loading, by administering a single dose of 8-80 mg/kg of L-2-oxothiazolidine-4-carboxylic acid to a type 2 diabetes mouse, Fourth step; Examining the effect of long term administration of L-2-oxothiazolidine-4-carboxylic acid on lowering blood glucose levels,
# Under the same breeding condition as in EXAMPLE 2, no feed but water was given to 7 week old type 2 diabetes mice (C57BL/KsJ-db/db Jel, Clea, Japan) for 13 hours. 0.2 ml of PBS was orally given to the control group(5 mice) using feeding needle, and 8-80 mg/kg of L-2-oxothiazolidine-4-carboxylic acid dissolved in 0.2 ml of PBS was orally administered to the experimental group(5 mice). After 5 hours of drug administration, 1 g/kg of glucose (Sigma, USA) was intraperitoneally injected and the mice were maintained for 30 to 120 minutes. The blood glucose levels of type 2 diabetes mice at various time points were measured by the glucose oxidase method using a glucose analyzer(One-touch Basic, Lifescan, USA), and serum insulin levels were determined using a radioimmunoassay, as described in EXAMPLE 2.
# [3] = body weight during four weeks of oral administration (Example 4); type: in vivo, mouse; conditions: 40-80 mg/kg orally for four weeks; measured at one, two and four week points
# Protocol: (§1) Seven week old type 2 diabetes mice were maintained as in EXAMPLE 2. 0.2 ml of PBS (pH 7.4) was given to a control group twice a day for 1-4 weeks, and 40-80 mg/kg of L-2-oxothiazolidine-4-carboxylic acid dissolved in 0.2 ml of PBS of which pH was adjusted to 7.4 with 3 N NaOH(Junsei, Japan) was orally administered to an experimental group.
# [4] = tested on: type 2 diabetes mice (C57BL/KsJ-db/db Jcl); test: blood glucose levels after oral administration for 1-4 weeks (Example 4); type: in vivo, mouse; conditions: for duration of the blood glucose lowering effect: after glucose intake
# Protocol: The chemical L-2-oxothiazolidine-4-carboxylic acid was orally administered to diabetes mice(C57BL/KsJ-db/db Jcl) with a single dose of 3.0-400 mg/kg once in the state of empty stomach or 40-80 mg/kg twice a day for 1-4 weeks continuously.
# as §1
# The results of blood glucose levels shown in FIG. 7 were obtained, after 40-80 mg/kg of L-2-oxothiazolidine-4-carboxylic acid was administered to type 2 diabetes mice twice a day for two weeks and after glucose was subsequently given, as described in […]
# [5] = tested on: pancreatic islets of type 2 diabetes mice; test: morphological examination of pancreatic islets, hematoxylin-eosine and anti-insulin immunohistochemistry (Example 6); type: in vivo, mouse; conditions: 80 mg/kg for four weeks, 120 min after glucose 1 g/kg i.p.
# Protocol: Sixth step: Identifying the ability of insulin secretion of the control group and the type 2 diabetes mouse to which 80 mg/kg of L-2-oxothiazolidine-4-carboxylic acid for 4 weeks determined by immunohistochemical staining with anti-insulin antibody.
# L-2-oxothiazolidine-4-carboxylic acid or PBS alone was administered to 3 mice in each group, 1 g/kg of glucose was intraperitoneally injected in the fasted state, and they were sacrificed by cervical dislocation after 120 min. of the injection. Immediately, the abdominal region was incised, pancreases were then removed from the mice and fixed more than 12 hours in a cold solution of 4% paraformaldehyde in PBS(pH 7.4, Sigma, USA). Pancreas separated free of intestine and adipose tissue(fatty tissue), rinsed three times with fresh fixing solution, and the fixed tissues were processed routinely for paraffin embedding. The tissue sections were cut off at 5 ^μm interval using microtome(Sandon, Germany) from the paraffin embedding, and adhered to a slide coated with poly-L-lysine(Sigma, USA) for immunohistochemistry.
# To remove the paraffin from the slides on which pancreatic tissue was coated, the slides were repeatedly treated with xylene for 5 min., and the tissue sections were rehydrated with a series of 100-70% alcohol and incubated with PBS(pH 7.4) for 5 minutes. […]
# mice = mice pre-treated with L-2-oxothiazolidine-4-carboxylic acid, acetaminophen 9.5 mmol/kg oral; cited from earlier work
# [6] = 40 mg/kg for one week, 60 min after glucose intake
# [7] = 40 mg/kg for two weeks, 60 min after glucose addition
# [8] = 40 mg/kg for two weeks, 120 min after glucose intake
# [9] = 80 mg/kg for four weeks, 120 min after glucose intake
# [10] = 80 mg/kg for four weeks, fasted state (13 hours)
# [11] = 80 mg/kg for one week, 60 min after glucose intake
# [12] = 80 mg/kg for one week, 120 min after glucose intake
# [13] = 80 mg/kg for one week, fasted state (13 hours)
# [14] = 80 mg/kg for two weeks, 60 min after glucose addition
# [15] = 80 mg/kg for two weeks, 120 min after glucose intake
smiles,measurement,setting,value
"O=C1NC(C(=O)O)CS1 [OTC, L-2-oxothiazolidine-4-carboxylic acid]",ED50,[1],15 mg/kg
same,blood glucose level,[2]; 40 mg/kg single oral dose,295 ± 8.5 mg/dL
same,decrease of blood glucose level vs control group,[2]; 40 mg/kg single oral dose,34.27%
same,blood glucose level,[2]; 80 mg/kg single oral dose,269 ± 6.85 mg/dL
same,decrease of blood glucose level vs control group,[2]; 80 mg/kg single oral dose,40.01%
same,duration of the lowering effect of blood glucose levels after the intake of glucose,[2]; 40-80 mg/kg single oral dose,about 60 min
same,weight of the mice,[3],no weight difference
same,blood glucose level,"[4]; 40 mg/kg for four weeks, 180 min after glucose intake",50.50 ± 44.21 mg/dL
same,blood glucose level,[4]; [6],507.50 ± 52.81 mg/dL
same,decrease of blood glucose level vs control group,[4]; [6],16.8%
same,blood glucose level,[4]; [7],699.00 ± 58.91 mg/dL
same,lowering effect of blood glucose levels compared to the control group,[4]; [7],15.83%
same,blood glucose level,[4]; [8],599.50 ± 52.46 mg/dL
same,lowering effect of blood glucose levels compared to the control group,[4]; [8],22.2%
same,blood glucose level,"[4]; 40 mg/kg for two weeks, fasted for 13 hours",306.30 ± 24.06 mg/dL
same,blood glucose level,[4]; [9],539 ± 23.60 mg/dL
same,lowering effect of blood glucose levels compared to the control group,[4]; [9],38.8%
same,blood glucose level,[4]; [10],297.00 ± 26.51 mg/dL
same,more effective in lowering blood glucose levels than the control group,[4]; [10],32.5%
same,blood glucose level,[4]; [11],277.50 ± 40.89 mg/dL
same,decrease of blood glucose level vs control group,[4]; [11],54.51%
same,blood glucose level,[4]; [12],158.00 ± 28.33 mg/dL
same,decrease of blood glucose level vs control group,[4]; [12],72.11%
same,blood glucose level,[4]; [13],116.00 ± 119.74 mg/dL
same,blood glucose level relative to the control group,[4]; [13],52.07%
same,blood glucose level,[4]; [14],477.50 ± 58.91 mg/dL
same,blood glucose level relative to the control group,[4]; [14],42.50%
same,blood glucose level,[4]; [15],398.00 ± 28.33 mg/dL
same,lowering effect of blood glucose levels compared to the control group,[4]; [15],48.81%
same,blood glucose level,"[4]; 80 mg/kg for two weeks, fasted for 13 hours",301.50 ± 12.2 mg/dL
same,duration of the blood glucose lowering effect,[4]; 40-80 mg/kg for four weeks,about 180 min
same,duration of the blood glucose lowering effect,[4]; 40-80 mg/kg for one week,about 180 minutes
same,duration of the blood glucose lowering effect,[4]; 40-80 mg/kg for two weeks,about 180 min
same,increase of lowering effect of blood glucose levels compared to the control group,"[4]; 40-80 mg/kg for two weeks, fasted for 13 hours",11.5%
same,"densities of the capsule and the β-cells in the capsule, hematoxylin-eosine staining",[5],high
same,positive response to anti-insulin antibody of pancreatic β-islet cells,[5],distinctly increased
same,mortality rate,mice,less than 10%
